The source made the active and inactive calls. The calls are words filed in the database; no cut-off is given here.
Legend:
[1] = tested on: Hepatitis B virus; test: Antiviral activity against AAV-Hepatitis B virus infected in C57BL/6 mouse assessed as reduction of serum HBsAg level at 0.03 mg/kg,po qd for 8 weeks by chemiluminescence immunoassay; assay type: functional, organism-based
[2] = tested on: Hepatitis B virus; test: Antiviral activity against AAV-Hepatitis B virus infected in C57BL/6 mouse assessed as reduction of serum HBV DNA level at 0.03 mg/kg,po qd for 8 weeks by quantitative real-time PCR analysis; assay type: functional, organism-based
[3] = tested on: Hepatitis B virus; test: Antiviral activity against AAV-Hepatitis B virus infected in C57BL/6 mouse assessed as reduction of serum HBeAg level at 0.03 mg/kg,po qd for 8 weeks by chemiluminescence immunoassay; assay type: functional, organism-based
[4] = Clearance in human hepatocyte at 2 uM measured upto 120 mins by LC-MS/MS analysis; assay type: ADME, cell-based; settings: hepatocytes
[5] = Octanol-water partition coefficient, logD of the compound at pH 7.4; assay type: physicochemical
[6] = Oral bioavailability in rat plasma at 3 mg/kg; assay type: ADME, organism-based; settings: for F: in vivo, po, 3 mg/kg
[7] = Oral bioavailability in mouse plasma at 3 mg/kg; assay type: ADME, organism-based; settings: in vivo
[8] = Cytotoxicity against human HepDE19 cells assessed as reduction in cell viability incubated for 5 days by CCK-8 assay; assay type: functional; settings: HepDE19, 120 h, time 5 day
[9] = AUC (0-infinity) in mouse plasma at 3 mg/kg,po; assay type: ADME, organism-based; parameters: dose 3 mg/kg, route po; settings: in vivo
[10] = Half life in mouse plasma at 1 mg/kg,iv; assay type: ADME, organism-based
[11] = Clearance in rat hepatocyte at 2 uM measured upto 120 mins by LC-MS/MS analysis; assay type: ADME, cell-based; settings: hepatocytes
[12] = Volume of distribution at steady state in mouse plasma at 1 mg/kg,iv; assay type: ADME, organism-based; settings: read-out: Vdss
[13] = tested on: Hepatitis B virus; test: Antiviral activity against HBV stably transfected in human HepG2.2.15 cells assessed as reduction of HBV DNA replication incubated for 5 days by q-PCR analysis; assay type: functional, organism-based; settings: HepG2 2.2.15, 120 h
[14] = AUC (0-infinity) in mouse plasma at 1 mg/kg,iv; assay type: ADME, organism-based; parameters: dose 1 mg/kg, route iv; settings: in vivo
[15] = AUC (0-infinity) in rat plasma at 3 mg/kg,po; assay type: ADME, organism-based; parameters: dose 3 mg/kg, route po; settings: for AUC: in vivo
[16] = Clearance in mouse plasma at 1 mg/kg,iv; assay type: ADME, organism-based
[17] = Induction of CYP3A4 mRNA expression level in human hepatocytes at 10 uM incubated for 24 hrs by q-PCR analysis; assay type: ADME, cell-based, Hepatocyte
[18] = Clearance in human liver microsomes at 1 uM measured upto 30 mins in presence of NADPH by LC-MS/MS analysis; assay type: ADME, Microsome
[19] = biological target: Voltage-gated inwardly rectifying potassium channel KCNH2 (Homo sapiens, UniProt Q12809); test: (§1) Inhibition of hERG stably expressed in CHO cells by whole-cell voltage-clamp assay; assay type: toxicity, cell-based
Voltage-gated inwardly rectifying potassium channel KCNH2, sequence (Q12809 whole entry): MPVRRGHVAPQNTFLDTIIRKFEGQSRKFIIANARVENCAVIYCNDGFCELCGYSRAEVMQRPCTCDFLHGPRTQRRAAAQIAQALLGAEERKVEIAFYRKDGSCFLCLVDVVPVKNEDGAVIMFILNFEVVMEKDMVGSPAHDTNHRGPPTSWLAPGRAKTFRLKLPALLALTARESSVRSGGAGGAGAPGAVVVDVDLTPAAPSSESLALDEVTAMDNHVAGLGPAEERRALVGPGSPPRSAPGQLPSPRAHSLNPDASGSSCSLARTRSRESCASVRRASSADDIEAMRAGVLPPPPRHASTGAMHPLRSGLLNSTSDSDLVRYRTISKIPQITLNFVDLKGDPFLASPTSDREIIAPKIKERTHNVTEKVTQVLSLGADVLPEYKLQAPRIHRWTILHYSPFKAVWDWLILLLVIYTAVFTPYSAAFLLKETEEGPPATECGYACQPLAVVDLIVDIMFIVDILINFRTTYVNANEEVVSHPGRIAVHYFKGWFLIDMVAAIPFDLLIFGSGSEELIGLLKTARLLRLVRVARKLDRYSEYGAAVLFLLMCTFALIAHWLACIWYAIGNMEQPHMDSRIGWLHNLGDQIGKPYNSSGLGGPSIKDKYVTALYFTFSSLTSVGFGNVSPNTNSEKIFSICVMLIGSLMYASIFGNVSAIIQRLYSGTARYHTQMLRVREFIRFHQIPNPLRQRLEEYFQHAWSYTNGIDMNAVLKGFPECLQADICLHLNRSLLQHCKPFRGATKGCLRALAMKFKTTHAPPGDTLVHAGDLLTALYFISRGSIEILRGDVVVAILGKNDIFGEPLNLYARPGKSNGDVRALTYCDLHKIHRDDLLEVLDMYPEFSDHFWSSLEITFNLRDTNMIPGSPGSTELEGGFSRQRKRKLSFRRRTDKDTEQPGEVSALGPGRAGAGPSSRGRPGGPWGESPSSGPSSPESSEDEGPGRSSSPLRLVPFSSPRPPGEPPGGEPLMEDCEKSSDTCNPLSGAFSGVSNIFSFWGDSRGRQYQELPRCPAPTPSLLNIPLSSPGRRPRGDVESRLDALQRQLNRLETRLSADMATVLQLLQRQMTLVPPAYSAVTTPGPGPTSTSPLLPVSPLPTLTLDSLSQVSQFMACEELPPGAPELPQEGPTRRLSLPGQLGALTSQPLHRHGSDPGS

[20] = biological target: hERG (Homo sapiens, UniProt Q12809); test: as §1; assay type: toxicity, cell-based; settings: human, CHO cells stably expressing hERG
hERG, sequence (Q12809 whole entry): as above

[21] = Clearance in rat plasma at 1 mg/kg,iv; assay type: ADME, organism-based
[22] = Ratio of AUC (0 to infinity) in liver to plasma of mouse at 3 mg/kg,po; assay type: ADME, organism-based; settings: read-out: Ratio AUC
[23] = AUC (0-infinity) in mouse liver at 3 mg/kg,po; assay type: ADME, organism-based; parameters: dose 3 mg/kg, route po
[24] = Half life in rat plasma at 1 mg/kg,iv; assay type: ADME, organism-based
[25] = Volume of distribution at steady state in rat plasma at 1 mg/kg,iv; assay type: ADME, organism-based; settings: read-out: Vdss
[26] = AUC (0-infinity) in rat plasma at 1 mg/kg,iv; assay type: ADME, organism-based; parameters: dose 1 mg/kg, route iv
[27] = tested on: Hepatitis B virus; test: Antiviral activity against AAV-Hepatitis B virus infected in C57BL/6 mouse assessed as reduction of serum HBsAg level at 6 to 20 mg/kg,po qd for 8 weeks by chemiluminescence immunoassay; assay type: functional, organism-based; settings: dose 6-20 mg/kg
[28] = tested on: Hepatitis B virus; test: Antiviral activity against AAV-Hepatitis B virus infected in C57BL/6 mouse assessed as reduction of serum HBV DNA level at 6 to 20 mg/kg,po qd for 8 weeks by quantitative real-time PCR analysis; assay type: functional, organism-based; settings: dose 6-20 mg/kg
[29] = tested on: Hepatitis B virus; test: Antiviral activity against AAV-Hepatitis B virus infected in C57BL/6 mouse assessed as reduction of serum HBeAg level at 6 to 20 mg/kg,po qd for 8 weeks by chemiluminescence immunoassay; assay type: functional, organism-based; settings: dose 6-20 mg/kg

| SMILES | CLhep predicted at 2 µM [4] | logD [5] | F [6] | CC50 [8] | CLhep predicted at 2 µM [11] | EC50 [13] | AUC [15] | Activity [17] | CLhep predicted at 1 µM [18] | IC50 [19] | IC20 [20] | also measured |
| --- | --- | --- | --- | --- | --- | --- | --- | --- | --- | --- | --- | --- |
| C=C1[C@H](CO)[C@@H](O)C[C@@H]1n1cnc2c(=O)[nH]c(N)nc21 | – | – | – | – | – | – | – | – | – | – | – | Activity [1]: inactive; Activity [2]: Active; Activity [3]: inactive |
| CCOC(=O)C1=C(CN2CCN3C(=O)N(CC(C)(C)C(=O)O)C[C@@H]3C2)NC(c2nccs2)=N[C@H]1c1ccc(F)cc1Cl | 0.6 mL/min/kg | 1.67 | 15.6% | 77 µM | 22 mL/min/kg | 0.009 µM | 70 ng·h/mL | – | – | – | – | F [7]: 12%; AUC [9]: 38 ng·h/mL; half-life [10]: 54 min; Vd [12]: 2.2 L/kg; AUC [14]: 323 ng·h/mL; clearance [16]: 58 mL/min/kg |
| COC(=O)C1=C(CN2CCN3C(=O)N(CC(C)(C)C(=O)O)C[C@@H]3C2)NC(c2nccs2)=N[C@H]1c1ccc(F)cc1Cl | 9.2 mL/min/kg | 1.18 | 7.1% | > 100 µM | 14 mL/min/kg | 0.006 µM | 26 ng·h/mL | 0.6% | 2 mL/min/kg | > 20 µM | > 10 µM | – |
| COC(=O)C1=C(CN2CCN3C(=O)N(CC(C)(C)C(=O)O)C[C@@H]3C2)NC(c2nccs2)=N[C@H]1c1cccc(F)c1C | – | 1.26 | – | > 100 µM | – | 0.016 µM | – | – | – | – | – | – |
| COC(=O)C1=C(CN2CCN3C(=O)N(CC(C)(C)C(=O)O)C[C@@H]3C2)NC(c2nccs2)=N[C@H]1c1cccc(F)c1Cl | – | 1.21 | – | > 100 µM | – | 0.014 µM | – | – | – | – | – | – |
| CCOC(=O)C1=C(CN2C[C@H]3CN(C(C)(C)C)C(=O)N3C[C@@H]2C(=O)O)NC(c2nccs2)=N[C@H]1c1ccc(F)cc1Cl | – | – | 1.4% | > 100 µM | – | 0.001 µM | 2.7 ng·h/mL | 4% | 5 mL/min/kg | 10 µM | 2.2 µM | clearance [21]: 87 mL/min/kg; F [7]: 0.7%; Kp [22]: 607; AUC [9]: 0.4 ng·h/mL; half-life [10]: 30 min; AUC(0-inf) [23]: 279 ng·h/mL; Vd [12]: 5.2 L/kg; half-life [24]: 90 min; Vd [25]: 5.4 L/kg; AUC [14]: 65 ng·h/mL; AUC ([26]; in vivo): 188 ng·h/mL; clearance [16]: 248 mL/min/kg |
| CCOC(=O)C1=C(CN2CCN3C(=O)N(CC(C)(C)C(=O)O)C[C@@H]3C2)N=C(c2nccs2)N[C@H]1c1cccc(F)c1C [LINVENCORVIR] | – | – | – | > 100 µM | – | 0.006 µM | – | – | – | – | – | Activity [27]: Dose-Dependent Effect; Activity [28]: Dose-Dependent Effect; Activity [29]: Dose-Dependent Effect |
| CCOC(=O)C1=C(CN2C[C@H]3CN(C)C(=O)N3C[C@@H]2C(=O)O)NC(c2nccs2)=N[C@H]1c1cccc(F)c1Cl | – | – | – | > 100 µM | – | 0.002 µM | – | 1.7% | 5.8 mL/min/kg | > 20 µM | > 10 µM | – |
| COC(=O)C1=C(CN2CCN3C(=O)N(CC(C)(C)C(=O)O)C[C@@H]3C2)NC(c2nccs2)=N[C@H]1c1ccc(F)c(F)c1C | 2.4 mL/min/kg | 1.51 | 14% | 94 µM | 16 mL/min/kg | 0.006 µM | 43 ng·h/mL | – | – | – | – | – |
| CCOC(=O)C1=C(CN2CCN3C(=O)N(CC(C)(C)C(=O)O)C[C@@H]3C2)NC(c2nccs2)=N[C@H]1c1cccc(F)c1Cl | 7 mL/min/kg | 1.69 | – | > 100 µM | 17 mL/min/kg | 0.003 µM | – | 1% | 0.4 mL/min/kg | > 20 µM | > 10 µM | clearance [21]: 65 mL/min/kg; bioavailability ([6]; plasma): 10%; F [7]: 33%; Kp [22]: 24; AUC [9]: 154 ng·h/mL; half-life [10]: 37.2 min; AUC(0-inf) [23]: 3760 ng·h/mL; Vd [12]: 1.3 L/kg; half-life [24]: 108 min; Vd [25]: 4.8 L/kg; AUC [14]: 471 ng·h/mL; AUC(0-inf) ([26]; plasma): 257 ng·h/mL; AUC(0-inf) ([15]; plasma): 26 ng·h/mL; clearance [16]: 35 mL/min/kg |
| CCOC(=O)C1=C(CN2CCN3C(=O)N(CC(C)(C)C(=O)O)C[C@@H]3C2)NC(c2nccs2)=N[C@H]1c1ccc(F)c(F)c1C | – | 2 | 7.4% | > 100 µM | – | 0.003 µM | 43 ng·h/mL | – | – | – | – | – |
| CCOC(=O)C1=C(CN2CCN3C(=O)N(CC(C)C(=O)O)C[C@@H]3C2)NC(c2nccs2)=N[C@H]1c1ccc(F)cc1Cl (stereo not given in full) | – | – | – | > 100 µM | – | 0.016 µM | – | 2.4% | 2.7 mL/min/kg | > 20 µM | > 10 µM | – |
